Measurements from ChEMBL document CHEMBL1201862, “PubChem BioAssay data set” (2004).
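Test compounds were applied to cells in 96-well plates for 48 hours at 5 doses. GI50 = concentration required for 50% inhibition of growth.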 Active and inactive are the calls of the source. No stated cut-off is given here; in the data, active = GI50 up to about 1.1 µM and inactive = higher.

Assays:
Assay in all cases: NCI anticancer screen, dose series, 48 h
SF-295 = system: SF-295
NCI-H460 = system: NCI-H460
SK-MEL-2 = system: SK-MEL-2
DMS-114 = system: DMS-114
HL-60 = system: HL-60
IGROV-1 = system: IGROV-1
K562 = system: K562
EKVX = system: EKVX
HOP-62 = system: HOP-62
SK-OV-3 = system: SK-OV-3
OVCAR-8 = system: OVCAR-8
UACC-257 = system: UACC-257
SK-MEL-5 = system: SK-MEL-5
HOP-92 = system: HOP-92
SF-268 = system: SF-268
ACHN = system: ACHN
BT-549 = system: BT-549
MDA-MB-231 = system: MDA-MB-231
NCI/ADR-RES = system: NCI/ADR-RES
PC-3 = system: PC-3

Measured: GI50

CC1(C)C=N[N+]2(C)C3C=CC(CC3)C12 (stereo not drawn)
inactive: SF-295 > 100 µM | NCI-H460 > 100 µM | SK-MEL-2 > 100 µM | DMS-114 > 100 µM | HL-60 > 100 µM | IGROV-1 > 100 µM | K562 > 100 µM | EKVX > 100 µM | HOP-62 > 100 µM | SK-OV-3 > 100 µM | OVCAR-8 > 100 µM | UACC-257 > 100 µM | SK-MEL-5 > 100 µM | HOP-92 > 100 µM | SF-268 > 100 µM | ACHN > 100 µM

Cc1ccc(S(=O)(=O)N(/N=C/C=C/c2ccccc2)c2nnc(-c3ccccc3)c(-c3ccccc3)n2)cc1
inactive: SF-295 19 µM | NCI-H460 21.7 µM | SK-MEL-2 17 µM | DMS-114 16.3 µM | HL-60 14.9 µM | IGROV-1 34.6 µM | K562 15 µM | EKVX 24.9 µM | HOP-62 18.3 µM | SK-OV-3 34.5 µM | OVCAR-8 25.6 µM | UACC-257 13.3 µM | SK-MEL-5 14.9 µM | HOP-92 19 µM | SF-268 25.9 µM | ACHN 29.8 µM

CC(=O)/C(=C\c1cccc([N+](=O)[O-])c1)C(=O)Nc1ccccc1C
inactive: SF-295 > 100 µM | NCI-H460 > 100 µM | SK-MEL-2 > 100 µM | DMS-114 > 100 µM | HL-60 20.2 µM | IGROV-1 > 100 µM | K562 72.4 µM | EKVX > 100 µM | HOP-62 > 100 µM | SK-OV-3 > 100 µM | OVCAR-8 > 10 µM | UACC-257 > 100 µM | SK-MEL-5 > 100 µM | HOP-92 > 100 µM | SF-268 > 100 µM | ACHN > 100 µM

CSc1snc2sc3c(Cl)nnnc3c12
inactive: SF-295 18 µM | NCI-H460 15.8 µM | SK-MEL-2 12.6 µM | DMS-114 13.2 µM | IGROV-1 18.3 µM | K562 2.36 µM | EKVX 19.6 µM | HOP-62 16.1 µM | SK-OV-3 17.7 µM | OVCAR-8 7.46 µM | UACC-257 12.8 µM | SK-MEL-5 16.7 µM | SF-268 16.9 µM | ACHN 11.1 µM

O=C1CCC[C@]2(CCCC(=O)N2)C1
inactive: SF-295 > 100 µM | NCI-H460 > 100 µM | SK-MEL-2 > 100 µM | DMS-114 > 100 µM | HL-60 > 100 µM | IGROV-1 > 100 µM | K562 > 100 µM | EKVX > 100 µM | HOP-62 > 100 µM | SK-OV-3 > 100 µM | OVCAR-8 > 100 µM | UACC-257 > 100 µM | SK-MEL-5 > 100 µM | HOP-92 > 100 µM | SF-268 > 100 µM | ACHN > 100 µM

O=S(=O)(O)C(O)/C=C/c1ccccc1 (stereo not drawn)
inactive: SF-295 > 100 µM | SK-MEL-2 > 100 µM | DMS-114 65.2 µM | HL-60 > 100 µM | IGROV-1 > 100 µM | K562 > 100 µM | EKVX > 100 µM | HOP-62 > 100 µM | SK-OV-3 > 100 µM | OVCAR-8 > 100 µM | UACC-257 > 100 µM | SK-MEL-5 > 100 µM | SF-268 > 100 µM | ACHN > 100 µM

O=C1NC(=O)C(C(=O)C(=O)Nc2ccc(Cl)cc2Cl)C(=O)N1
inactive: SF-295 > 100 µM | NCI-H460 > 100 µM | SK-MEL-2 > 100 µM | DMS-114 > 100 µM | HL-60 > 100 µM | IGROV-1 > 100 µM | K562 > 100 µM | EKVX > 100 µM | HOP-62 > 100 µM | SK-OV-3 > 100 µM | OVCAR-8 > 100 µM | UACC-257 > 100 µM | SK-MEL-5 > 100 µM | HOP-92 36.8 µM | ACHN > 100 µM

COc1cccc(/C=C(\NC(C)=O)c2nc3cc(Cl)ccc3[nH]2)c1
inactive: SF-295 > 100 µM | SK-MEL-2 > 100 µM | DMS-114 > 100 µM | IGROV-1 > 100 µM | K562 > 100 µM | EKVX > 100 µM | SK-OV-3 > 100 µM | OVCAR-8 > 100 µM | SK-MEL-5 > 100 µM | HOP-92 59.3 µM | SF-268 > 100 µM | ACHN > 100 µM

O=C(O)CNc1cc(-c2ccccc2)nc(NCC(=O)O)n1
inactive: SF-295 > 100 µM | NCI-H460 > 100 µM | SK-MEL-2 > 100 µM | DMS-114 > 100 µM | HL-60 > 100 µM | IGROV-1 > 100 µM | K562 > 100 µM | EKVX > 100 µM | HOP-62 > 100 µM | SK-OV-3 > 100 µM | OVCAR-8 > 100 µM | UACC-257 > 100 µM | SK-MEL-5 > 100 µM | HOP-92 > 100 µM | ACHN > 100 µM

Cc1ccc(-c2cc(-c3ccco3)c(C#N)c(=O)n2C2OC(OC(=O)c3ccccc3)C(OC(=O)c3ccccc3)C2OC(=O)c2ccccc2)cc1 (stereo not drawn)
inactive: SF-295 59 µM | NCI-H460 > 100 µM | SK-MEL-2 > 100 µM | DMS-114 38.6 µM | IGROV-1 42.8 µM | K562 > 100 µM | EKVX > 100 µM | HOP-62 43 µM | SK-OV-3 > 100 µM | OVCAR-8 > 100 µM | HOP-92 24.7 µM | SF-268 81.3 µM | ACHN > 100 µM

N#CC1=C(O)NC(O)=C(C#N)C1c1ccc(C2C(C#N)=C(O)NC(O)=C2C#N)cc1
inactive: SF-295 > 100 µM | NCI-H460 46.5 µM | SK-MEL-2 > 100 µM | DMS-114 > 100 µM | HL-60 28.3 µM | IGROV-1 > 100 µM | K562 53.2 µM | EKVX > 100 µM | HOP-62 > 100 µM | SK-OV-3 > 100 µM | OVCAR-8 > 100 µM | UACC-257 > 100 µM | SK-MEL-5 > 100 µM | SF-268 > 100 µM | ACHN > 100 µM

O=C(COc1ccc2c(=O)cc(-c3ccccc3)oc2c1)N1CCN(c2ccccc2)CC1
inactive: SF-295 52.6 µM | NCI-H460 31.8 µM | SK-MEL-2 21.1 µM | DMS-114 24.5 µM | HL-60 15.8 µM | IGROV-1 > 100 µM | K562 18 µM | EKVX 28.4 µM | HOP-62 78.7 µM | SK-OV-3 > 100 µM | OVCAR-8 26.4 µM | UACC-257 43 µM | SK-MEL-5 25.4 µM | SF-268 46.2 µM | ACHN 50.8 µM

COc1ccc(/C=c2/sc3n(c2=O)NC2(CCC(C)CC2)NN=3)cc1 (stereo not drawn)
inactive: SF-295 > 100 µM | NCI-H460 > 100 µM | SK-MEL-2 > 100 µM | DMS-114 50 µM | IGROV-1 > 100 µM | K562 > 100 µM | EKVX > 100 µM | HOP-62 > 100 µM | SK-OV-3 > 100 µM | OVCAR-8 > 100 µM | SK-MEL-5 49.7 µM | HOP-92 34.9 µM | SF-268 > 100 µM | ACHN > 100 µM

C=CCC(C(=O)OC)C1(C(=O)OC)c2[nH]c3ccccc3c2CCN1Cc1ccccc1 (stereo not drawn)
inactive: SF-295 35.1 µM | SK-MEL-2 > 100 µM | DMS-114 > 100 µM | HL-60 18.2 µM | IGROV-1 > 100 µM | K562 > 10 µM | EKVX > 100 µM | HOP-62 > 100 µM | SK-OV-3 89.9 µM | OVCAR-8 83.6 µM | SK-MEL-5 85.5 µM | HOP-92 23.4 µM | SF-268 > 100 µM

CNCC(=O)Nc1ccc2c(c1)C(=O)c1ccc(NC(=O)CNC)cc1C2=O
inactive: SF-295 5.3 µM | NCI-H460 3.77 µM | SK-MEL-2 3.66 µM | DMS-114 2.03 µM | IGROV-1 16.6 µM | K562 1.96 µM | HOP-62 2.9 µM | SK-OV-3 1.62 µM | OVCAR-8 2.69 µM | UACC-257 4.36 µM | SK-MEL-5 4.68 µM | HOP-92 1.78 µM

Cc1nc2ccccc2n1Cc1nnc(-c2ccccc2)o1
inactive: SF-295 > 100 µM | NCI-H460 91 µM | SK-MEL-2 > 100 µM | HL-60 > 100 µM | IGROV-1 72.9 µM | K562 33.9 µM | EKVX > 100 µM | HOP-62 > 100 µM | SK-OV-3 > 100 µM | OVCAR-8 > 100 µM | UACC-257 > 100 µM | SK-MEL-5 55 µM | HOP-92 > 100 µM | SF-268 > 100 µM | BT-549 > 100 µM | MDA-MB-231 > 100 µM | NCI/ADR-RES > 100 µM | ACHN > 100 µM | PC-3 > 100 µM

OC1CN2Cc3cc4c(cc3[C@]13C=C[C@@H](O)CC23)OCO4 (stereo partly drawn)
inactive: SF-295 33.6 µM | NCI-H460 14.4 µM | SK-MEL-2 31.6 µM | HL-60 21.2 µM | IGROV-1 18.3 µM | K562 23.7 µM | EKVX 15.4 µM | HOP-62 41.1 µM | SK-OV-3 20.2 µM | OVCAR-8 29.2 µM | UACC-257 7.89 µM | SK-MEL-5 22.9 µM | HOP-92 21.3 µM | SF-268 29.3 µM | BT-549 33.4 µM | MDA-MB-231 59.3 µM | NCI/ADR-RES 54.3 µM | ACHN 7.85 µM | PC-3 27.6 µM

Cn1c(=O)oc2cc(C(=O)CSC(=S)N3CCCCCC3)ccc21
inactive: SF-295 87.9 µM | NCI-H460 52.7 µM | SK-MEL-2 > 100 µM | HL-60 51.8 µM | IGROV-1 > 100 µM | K562 57.1 µM | EKVX > 100 µM | HOP-62 61.1 µM | SK-OV-3 > 100 µM | OVCAR-8 > 100 µM | UACC-257 > 100 µM | SK-MEL-5 > 100 µM | HOP-92 > 100 µM | SF-268 > 100 µM | BT-549 > 100 µM | MDA-MB-231 > 100 µM | NCI/ADR-RES 54.2 µM | ACHN > 100 µM | PC-3 99.1 µM
